Reference: US11779577B2, “Nonselective metabotropic glutamate receptor activators for treatment of anorexia nervosa and binge eating disorder” (The Children's Hospital of Philadelphia, priority 2016, dated 2023)

Experiments:
[1] = tested on: group I and group II/III mGluRs; conditions: in vitro studies (Hirouchi 2000); cited from earlier work
ADHD = assay: open-label Phase Ib clinical trial in adolescent ADHD subjects with CNV in an mGluR network gene; format: in vivo, human
Procedure: Previously, an open-label Phase Ib clinical trial was conducted to study the safety, pharmacokinetics, and efficacy of fasoracetam (fasoracetam monohydrate) in adolescent subjects between the ages of 12 and 17 previously diagnosed with ADHD. Each of the study subjects in this clinical trial had one or more CNV in an mGluR network gene.

[2] = tested on: adenylate cyclase activity; conditions: cited from earlier work
[3] = prior human studies; cited from earlier work
[4] = tested on: dementia-related cognitive impairment; conditions: cited from earlier work
pediatric ADHD subjects = conditions: compared to a placebo control; cited from earlier work

| Compound | stimulation of mGluRs [1] | treatment of ADHD (ADHD; adolescent subjects ages 12 to 17 with one or more CNV in an mGluR network gene) | appetite (ADHD; children tested in the ADHD clinical study) | adenylate cyclase activity through group II and III mGluRs ([2]; by stimulating group II and III mGluRs (Oka 1997)) | adenylate cyclase activity through group I mGluRs ([2]; through activation of group I mGluRs (Oka 1997)) | bioavailability [3] | half-life [3] | safety and tolerability ([4]; Phase I-III trials, dementia-related cognitive impairment) | effects on psychiatric symptoms ([4]; Phase III data, cerebral infarct patients and adult dementia patients with cerebrovascular diseases) | efficacy in dementia ([4]; Phase III trials) | ADHD symptoms (pediatric ADHD subjects) |
| --- | --- | --- | --- | --- | --- | --- | --- | --- | --- | --- | --- |
| O=C1CC[C@H](C(=O)N2CCCCC2)N1 [fasoracetam] | stimulate both group I and group II/III mGluRs | successfully treated | appetite was observed to be improved | may also inhibit adenylate cyclase activity | may stimulate adenylate cyclase activity | 79%-97% | 5 to 6.5 h | generally safe and well tolerated | beneficial effects | did not show sufficient efficacy | – |
| NC(=O)CN1CCCC1=O [piracetam] | – | – | – | – | – | – | – | – | – | – | increase ADHD symptoms |
